ChEMBL document CHEMBL5653631, “A Potent and Selective ULK1 Inhibitor Suppresses Autophagy and Sensitizes Cancer Cells to Nutrient Stress” (iScience, 2018)

Key:
[1] = biological target: Cyclin-dependent kinase-like 1 (Homo sapiens) (UniProt Q00532); assay: Inhibition of human recombinant CDKL1 at 40 nM in presence of ATP by radiometric assay relative to control
[2] = biological target: Mitogen-activated protein kinase 8 (Homo sapiens) (UniProt P45983); assay: Inhibition of human recombinant JNK1 at 40 nM in presence of ATP by radiometric assay relative to control
Chain of Mitogen-activated protein kinase 8 (Homo sapiens) (P45983 whole entry): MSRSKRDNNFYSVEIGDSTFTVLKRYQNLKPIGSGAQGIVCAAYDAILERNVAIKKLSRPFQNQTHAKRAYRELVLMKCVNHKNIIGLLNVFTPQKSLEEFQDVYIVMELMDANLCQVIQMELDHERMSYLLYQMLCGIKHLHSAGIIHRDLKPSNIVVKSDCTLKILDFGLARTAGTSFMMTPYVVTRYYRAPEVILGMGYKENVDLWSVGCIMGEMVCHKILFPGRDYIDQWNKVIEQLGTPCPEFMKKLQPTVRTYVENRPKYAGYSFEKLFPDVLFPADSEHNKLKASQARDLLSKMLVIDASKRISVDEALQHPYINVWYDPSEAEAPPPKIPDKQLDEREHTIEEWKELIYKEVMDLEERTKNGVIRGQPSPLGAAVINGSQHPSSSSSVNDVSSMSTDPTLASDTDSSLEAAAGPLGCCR

[3] = biological target: T1, Homeodomain-interacting protein kinase 4 (Homo sapiens) (UniProt Q8NE63); assay: Inhibition of human recombinant HIPK4 at 40 nM related to control ULK1
T1 sequence (whole entry): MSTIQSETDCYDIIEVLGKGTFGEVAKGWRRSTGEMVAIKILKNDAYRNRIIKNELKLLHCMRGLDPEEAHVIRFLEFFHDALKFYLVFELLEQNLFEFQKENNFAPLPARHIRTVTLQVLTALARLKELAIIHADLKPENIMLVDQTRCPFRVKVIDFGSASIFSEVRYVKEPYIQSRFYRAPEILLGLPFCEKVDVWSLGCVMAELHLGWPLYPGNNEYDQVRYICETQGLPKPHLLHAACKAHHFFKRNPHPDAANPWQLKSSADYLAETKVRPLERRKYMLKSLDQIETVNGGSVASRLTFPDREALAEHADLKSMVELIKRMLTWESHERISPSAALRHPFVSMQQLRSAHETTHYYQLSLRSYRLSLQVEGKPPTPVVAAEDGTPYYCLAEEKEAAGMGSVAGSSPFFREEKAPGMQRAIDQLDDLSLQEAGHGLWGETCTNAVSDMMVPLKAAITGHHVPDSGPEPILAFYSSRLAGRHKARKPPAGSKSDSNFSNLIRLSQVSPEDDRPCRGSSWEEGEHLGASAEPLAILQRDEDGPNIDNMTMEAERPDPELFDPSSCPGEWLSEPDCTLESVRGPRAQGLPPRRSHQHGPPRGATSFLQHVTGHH

[4] = biological target: Cyclin-dependent kinase-like 1 (Homo sapiens) (UniProt Q00532); assay: Inhibition of human recombinant CDKL1 at 15 nM in presence of ATP by radiometric assay relative to control
[5] = biological target: Tau-tubulin kinase 1 (Homo sapiens) (UniProt Q5TCY1); assay: Inhibition of human recombinant TTBK1 at 15 nM in presence of ATP by radiometric assay relative to control
Chain of Tau-tubulin kinase 1 (Homo sapiens) (Q5TCY1 whole entry): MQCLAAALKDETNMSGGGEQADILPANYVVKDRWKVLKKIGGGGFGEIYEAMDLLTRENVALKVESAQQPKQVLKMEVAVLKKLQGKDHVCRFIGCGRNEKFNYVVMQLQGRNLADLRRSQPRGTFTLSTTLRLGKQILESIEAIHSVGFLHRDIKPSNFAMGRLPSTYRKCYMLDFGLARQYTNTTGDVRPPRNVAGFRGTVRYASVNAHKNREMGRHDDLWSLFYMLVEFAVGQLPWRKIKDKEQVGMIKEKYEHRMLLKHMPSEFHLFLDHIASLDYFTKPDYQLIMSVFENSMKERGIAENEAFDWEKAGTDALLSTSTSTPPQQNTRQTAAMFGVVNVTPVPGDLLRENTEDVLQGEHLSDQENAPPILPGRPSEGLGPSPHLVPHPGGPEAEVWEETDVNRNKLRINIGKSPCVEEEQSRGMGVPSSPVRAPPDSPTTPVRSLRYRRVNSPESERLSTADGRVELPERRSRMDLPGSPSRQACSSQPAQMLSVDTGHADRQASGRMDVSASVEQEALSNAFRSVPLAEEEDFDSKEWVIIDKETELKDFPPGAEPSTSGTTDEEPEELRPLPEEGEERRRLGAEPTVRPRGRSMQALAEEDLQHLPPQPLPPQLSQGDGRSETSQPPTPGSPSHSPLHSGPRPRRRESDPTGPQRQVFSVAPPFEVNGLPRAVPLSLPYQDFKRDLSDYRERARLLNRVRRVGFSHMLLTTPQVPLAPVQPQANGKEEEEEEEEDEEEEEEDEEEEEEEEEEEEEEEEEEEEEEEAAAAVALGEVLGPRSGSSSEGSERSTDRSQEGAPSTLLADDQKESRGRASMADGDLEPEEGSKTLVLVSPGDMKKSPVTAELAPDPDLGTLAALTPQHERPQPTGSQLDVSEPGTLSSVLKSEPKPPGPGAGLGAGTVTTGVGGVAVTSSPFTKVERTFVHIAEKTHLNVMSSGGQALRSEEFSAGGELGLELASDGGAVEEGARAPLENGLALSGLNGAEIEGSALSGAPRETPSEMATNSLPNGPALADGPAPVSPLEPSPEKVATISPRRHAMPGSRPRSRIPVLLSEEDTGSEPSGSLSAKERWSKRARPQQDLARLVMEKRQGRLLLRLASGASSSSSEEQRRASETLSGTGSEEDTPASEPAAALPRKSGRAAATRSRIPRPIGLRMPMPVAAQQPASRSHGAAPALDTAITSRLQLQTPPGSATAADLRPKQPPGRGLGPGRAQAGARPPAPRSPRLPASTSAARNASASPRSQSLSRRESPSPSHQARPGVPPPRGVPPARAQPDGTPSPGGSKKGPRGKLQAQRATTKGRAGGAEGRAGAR

[6] = biological target: T2, Serine/threonine-protein kinase Nek2 (Homo sapiens) (UniProt P51955); assay: Inhibition of human recombinant NEK2 at 15 nM related to control ULK1
T2 sequence (whole entry): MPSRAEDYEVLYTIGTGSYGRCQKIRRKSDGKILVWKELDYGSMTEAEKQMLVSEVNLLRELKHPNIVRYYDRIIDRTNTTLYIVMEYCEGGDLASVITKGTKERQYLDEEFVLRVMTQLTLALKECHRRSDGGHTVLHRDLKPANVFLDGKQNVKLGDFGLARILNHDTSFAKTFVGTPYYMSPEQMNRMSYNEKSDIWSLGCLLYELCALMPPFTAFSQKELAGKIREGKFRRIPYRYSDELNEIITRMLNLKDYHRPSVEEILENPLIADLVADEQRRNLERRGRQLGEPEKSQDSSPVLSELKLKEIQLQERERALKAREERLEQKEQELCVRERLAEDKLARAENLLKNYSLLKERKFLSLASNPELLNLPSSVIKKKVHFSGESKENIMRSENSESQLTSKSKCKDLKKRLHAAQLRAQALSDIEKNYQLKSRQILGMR

[7] = biological target: T3, Mitogen-activated protein kinase kinase kinase 7 (Homo sapiens) (UniProt O43318); assay: Inhibition of human recombinant TAK1 at 15 nM related to control ULK1
T3 sequence (whole entry): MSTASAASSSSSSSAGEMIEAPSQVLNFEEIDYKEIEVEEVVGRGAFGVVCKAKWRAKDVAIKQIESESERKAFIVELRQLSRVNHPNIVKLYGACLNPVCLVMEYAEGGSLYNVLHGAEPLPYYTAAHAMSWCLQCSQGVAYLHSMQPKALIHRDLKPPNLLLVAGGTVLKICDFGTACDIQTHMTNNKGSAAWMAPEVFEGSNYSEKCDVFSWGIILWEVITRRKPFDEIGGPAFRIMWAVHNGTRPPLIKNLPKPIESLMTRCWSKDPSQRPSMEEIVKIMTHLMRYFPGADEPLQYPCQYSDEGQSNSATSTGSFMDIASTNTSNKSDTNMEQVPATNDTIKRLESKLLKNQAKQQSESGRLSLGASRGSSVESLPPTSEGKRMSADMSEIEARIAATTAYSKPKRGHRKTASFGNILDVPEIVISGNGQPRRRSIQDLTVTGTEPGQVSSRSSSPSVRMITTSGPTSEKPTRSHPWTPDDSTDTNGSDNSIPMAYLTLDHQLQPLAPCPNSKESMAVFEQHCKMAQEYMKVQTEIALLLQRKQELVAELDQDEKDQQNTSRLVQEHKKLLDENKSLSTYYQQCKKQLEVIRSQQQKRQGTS

[8] = biological target: Tyrosine-protein kinase SYK (Homo sapiens) (UniProt P43405); assay: Inhibition of human recombinant SYK at 500 nM in presence of ATP by radiometric assay relative to control
[9] = biological target: Cyclin-dependent kinase-like 3 (Homo sapiens) (UniProt Q8IVW4); assay: Inhibition of human recombinant CDKL3 at 500 nM related to control ULK1
Chain of Cyclin-dependent kinase-like 3 (Homo sapiens) (Q8IVW4 whole entry, looked up): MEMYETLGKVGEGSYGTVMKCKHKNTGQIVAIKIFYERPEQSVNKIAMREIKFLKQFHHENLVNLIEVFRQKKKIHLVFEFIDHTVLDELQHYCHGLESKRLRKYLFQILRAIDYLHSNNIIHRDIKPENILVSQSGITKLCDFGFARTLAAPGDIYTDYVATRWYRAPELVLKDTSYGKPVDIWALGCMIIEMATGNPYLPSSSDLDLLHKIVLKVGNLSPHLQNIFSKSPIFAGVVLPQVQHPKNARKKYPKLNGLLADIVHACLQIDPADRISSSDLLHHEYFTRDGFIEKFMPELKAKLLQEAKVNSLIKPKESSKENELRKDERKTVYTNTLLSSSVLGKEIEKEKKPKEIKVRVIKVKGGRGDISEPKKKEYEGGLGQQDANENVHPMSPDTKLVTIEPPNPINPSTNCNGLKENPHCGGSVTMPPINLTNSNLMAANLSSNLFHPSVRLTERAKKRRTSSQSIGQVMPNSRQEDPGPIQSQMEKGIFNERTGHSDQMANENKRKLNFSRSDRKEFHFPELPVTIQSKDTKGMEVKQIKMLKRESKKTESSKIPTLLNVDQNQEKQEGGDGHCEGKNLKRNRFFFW

[10] = biological target: T4, Serine/threonine-protein kinase TBK1 (Homo sapiens) (UniProt Q9UHD2); assay: Inhibition of human recombinant TBK1 at 500 nM related to control ULK1
T4 sequence (whole entry): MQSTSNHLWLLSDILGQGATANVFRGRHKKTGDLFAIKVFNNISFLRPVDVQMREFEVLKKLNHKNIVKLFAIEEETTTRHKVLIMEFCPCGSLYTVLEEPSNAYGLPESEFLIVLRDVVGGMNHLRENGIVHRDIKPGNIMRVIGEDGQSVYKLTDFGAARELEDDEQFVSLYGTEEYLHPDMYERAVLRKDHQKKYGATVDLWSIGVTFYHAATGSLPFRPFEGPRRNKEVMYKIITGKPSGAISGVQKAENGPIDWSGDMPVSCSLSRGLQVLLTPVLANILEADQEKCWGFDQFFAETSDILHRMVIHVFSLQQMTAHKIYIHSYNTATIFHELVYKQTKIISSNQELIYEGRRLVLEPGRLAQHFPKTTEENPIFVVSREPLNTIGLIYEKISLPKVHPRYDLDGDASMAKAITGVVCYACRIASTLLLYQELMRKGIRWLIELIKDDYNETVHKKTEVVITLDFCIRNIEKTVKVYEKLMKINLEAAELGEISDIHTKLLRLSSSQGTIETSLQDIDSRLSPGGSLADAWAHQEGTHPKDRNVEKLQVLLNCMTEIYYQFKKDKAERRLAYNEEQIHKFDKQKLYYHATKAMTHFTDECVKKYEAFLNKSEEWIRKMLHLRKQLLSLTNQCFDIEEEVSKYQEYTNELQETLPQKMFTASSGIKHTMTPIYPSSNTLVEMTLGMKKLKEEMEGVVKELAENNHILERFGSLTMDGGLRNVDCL

Chain of Cyclin-dependent kinase-like 1 (Homo sapiens) (Q00532 whole entry): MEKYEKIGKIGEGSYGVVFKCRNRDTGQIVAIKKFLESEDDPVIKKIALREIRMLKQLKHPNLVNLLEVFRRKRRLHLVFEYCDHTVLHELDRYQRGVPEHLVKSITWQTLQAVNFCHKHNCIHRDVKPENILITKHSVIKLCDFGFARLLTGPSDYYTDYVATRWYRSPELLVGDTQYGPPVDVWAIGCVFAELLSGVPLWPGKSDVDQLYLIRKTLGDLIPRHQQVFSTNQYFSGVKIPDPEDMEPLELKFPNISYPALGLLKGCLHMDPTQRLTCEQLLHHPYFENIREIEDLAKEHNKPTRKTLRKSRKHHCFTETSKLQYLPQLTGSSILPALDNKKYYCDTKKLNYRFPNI

`O=C(N[C@@H](C1CC1)C(F)(F)F)c1cc(-c2cnn3cc(-c4ccc(F)cc4)cnc23)cs1` showed an inhibition [1] of 15%, an inhibition [2] of 0% and a fold change (FC) [3] of 0.

`CC(C)[C@H](NC(=O)c1cc(-c2cnn3cc(-c4ccc(OCCN5CCCCC5)cc4)cnc23)cs1)C(F)(F)F` showed an inhibition [4] of 24%, an inhibition [5] of 0% and a fold change (FC) [6] of 0.14. It also gave a fold change (FC) [7] of 0.01.

`CNC(=O)c1ccccc1Oc1nc(Nc2cc(OC)c(OC)c(OC)c2)ncc1Br` gave an inhibition [8] of 0%, a fold change (FC) [9] of 0 and a fold change (FC) [10] of 0.
